In patent publication US20090005395A1 (Solvay Pharmaceuticals, B.V., priority 2007, published 2009):
Read-outs that look alike come from different tables or passages of the source.

Experiments:
[1] = Reduction of sildenafil N-oxide in the human colon model TIM2; assay type: in vitro ADME
Procedure: The human colon model TIM2 (TNO Intestinal Model 2) is a dynamic model for the human large intestine that simulates in vivo conditions. It is an artificial digestive system that has been validated by many studies (Minekus, 1999).
Suspended in 1% methylcellulose, sildenafil-N-oxide (1 mg) was inserted into the lumen (120 ml) of the TIM2 model (see above, Minekus, 1999). Samples from the lumen and the dialysate (the latter being a model for the vascular bed of the intestines) were taken at various time intervals, and analyzed for sildenafil-N-oxide and sildenafil.

[2] = Plasma pharmacokinetics of sildenafil and its N-oxide; assay type: in vivo; conditions: male, NMRI, mouse, mice; for Kp: brain, read-out: Brain/plasma ratio; for AUC: read-out: AUC0→end; for AUC(0-inf): Tend = ∞
Procedure: Liquid Chromatography-Tandem Mass Spectrometry (LC-MS/MS) was performed using a Sciex API4000 LC-MS/MS. […] Compound peak area was used for quantification. The calibration curves were fitted to the model y=A+Bx+Cx^2 (y is the peak area of the analyte, x is the nominal calibration level in ng/ml (plasma) or ng/g (brain), A is the intercept, B is the slope and C is the description of the curvature). 1/x^2 weighing was used. LC-MS/MS system performance was monitored using a reference solution injected at standard intervals. […] The Lower Limit Of Quantification (LLOQ) was established at 1.00 ng/ml and 5.00 ng/brain, for plasma and brain samples, respectively. Reversed phase HPLC was performed using gradient elution by a Hypersil BDS C18 100×4.6 mm 3 μm analytical column, with a temperature of 45° C. and a flow of 1.00 ml/min: […]

[3] = TIM2, 1 mg in 1% methylcellulose into lumen (120 ml), 0 h
[4] = TIM2, 1 mg into lumen (120 ml), 2 h
[5] = TIM2, 1 mg into lumen (120 ml), 4 h
[6] = TIM2, 1 mg into lumen (120 ml), 6 h
[7] = TIM2, 1 mg into lumen (120 ml), 8 h
[8] = TIM2, 1 mg into lumen (120 ml), 24 h

CCCc1nn(C)c2c(=O)[nH]c(-c3cc(S(=O)(=O)N4CC[N+](C)([O-])CC4)ccc3OCC)nc12 [Sildenafil-N-oxide, 1-[[3-(6,7-dihydro-1-methyl-7-oxo-3-propyl-1H-pyrazolo[4,3-d]pyrimidin-5-yl)-4-ethoxyphenyl]sulfonyl]-4-methyl-4-oxido-piperazine]
Sildenafil-N-oxide Dialysate concentration [1, 3]: <1.0 ng/mL
Sildenafil-N-oxide Lumen concentration [1, 3]: <1.0 ng/mL
Sildenafil-N-oxide Dialysate concentration [1, 4]: 33 ng/mL
Sildenafil-N-oxide Lumen concentration [1, 4]: 6.6 ng/mL
Sildenafil-N-oxide Dialysate concentration [1, 5]: <1.0 ng/mL
Sildenafil-N-oxide Lumen concentration [1, 5]: 4.7 ng/mL
Sildenafil-N-oxide Dialysate concentration [1, 6]: <1.0 ng/mL
Sildenafil-N-oxide Lumen concentration [1, 6]: 4.9 ng/mL
Sildenafil-N-oxide Dialysate concentration [1, 7]: <1.0 ng/mL
Sildenafil-N-oxide Lumen concentration [1, 7]: 6.7 ng/mL
Sildenafil-N-oxide Dialysate concentration [1, 8]: <1.0 ng/mL
Sildenafil-N-oxide Lumen concentration [1, 8]: 2.7 ng/mL
reduction to sildenafil in TIM2 ([1]; within 2 hours after dosing): nearly quantitatively reduced to sildenafil
Kp ([2]; iv, i.v. 1 mg/kg): 0.5
Kp ([2]; po, p.o. 10 mg/kg): 2.5
Tmax ([2]; iv, plasma, i.v. 1 mg/kg): 0 h
half-life ([2]; iv, plasma, i.v. 1 mg/kg): 0.4 h
AUC ([2]; iv, plasma, i.v. 1 mg/kg, Tend = 3 hrs): 125 ng·h/mL
AUC(0-inf) ([2]; iv, plasma, i.v. 1 mg/kg): 125 ng·h/mL
Cmax ([2]; iv, plasma, i.v. 1 mg/kg, extrapolated to T0 (time zero), read-out: Cmax (C0)): 495 ng/mL
Vd ([2]; plasma, iv, i.v. 1 mg/kg): 5 L/kg
clearance ([2]; plasma, iv, i.v. 1 mg/kg): 133 mL/min/kg
bioavailability ([2]; plasma, po, 10 mg/kg, i.v.): 1.5%
Tmax ([2]; po, plasma, p.o. 10 mg/kg): 1 h
half-life ([2]; po, plasma, p.o. 10 mg/kg): 5.1 h
AUC ([2]; po, plasma, p.o. 10 mg/kg, Tend = 24 hrs): 10.8 ng·h/mL
AUC(0-inf) ([2]; po, plasma, p.o. 10 mg/kg): 18.8 ng·h/mL
Cmax ([2]; po, plasma, p.o. 10 mg/kg, read-out: Cmax): 2.7 ng/mL
